According to patent US10385069B2, “Imidazo[2,1-B]thiazole and 5,6-dihydroimidazo[2,1-B]thiazole derivatives useful as S100-inhibitors” (Active Biotech AB, priority 2015, dated 2019):

Molecular target: T1, interaction between biotinylated human S100A9 and human RAGE-Fc (Homo sapiens, UniProt P06702)
T1 construct: made in house; host or cells: E. coli
T1 sequence (P06702 1-114): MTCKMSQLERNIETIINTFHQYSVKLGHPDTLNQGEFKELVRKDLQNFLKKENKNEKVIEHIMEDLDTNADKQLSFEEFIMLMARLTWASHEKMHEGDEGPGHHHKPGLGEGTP
Assay: AlphaScreen inhibition assay, biot-hS100A9:hRAGE-Fc
Assay type: binding
Details: biot-hS100A9 pre-incubated with compound 1 h, assay buffer with CaCl2 and ZnCl2
From the text: Inhibition Assay, Biot-hS100A9:hRAGE-Fc
The AlphaScreen (Amplified Luminescent Proximity Homogeneous Assay) contains two types of beads, Alpha Donor beads and Acceptor beads (PerkinElmer). Upon laser excitation at 680 nm a photosensitizer in the Donor bead converts ambient oxygen to a more excited singlet state. The singlet oxygen molecule diffuses (maximum 200 nm) to react with a thioxene derivative in the Acceptor bead and generates a chemiluminescence reaction. Fluorophores in the Acceptor bead subsequently emit light at 520-620 nm which can be detected in the EnVision® Multilabel plate Reader (PerkinElmer). The beads are light sensitive and all work with the beads is performed under subdued light conditions or using green filters on light sources (Roscolux Chroma Green #389, Rosco).
In the AlphaScreen Inhibition Assay described here, protein A (Staphylococcus aureus) conjugated Acceptor beads are used together with streptavidin coated Donor beads (Perkin Elmer 6760617M). The Acceptor beads are pre-incubated with Fc-tagged recombinant human RAGE (rhRAGE-Fc) allowing binding of the rhRAGE-Fc to protein A on the beads. Biotinylated human S100A9 (biot-hS100A9) is pre-incubated with the low molecular test compounds. The pre-mixes are then added to the wells of a micro-plate and incubated allowing interaction between biot-hS100A9 and rhRAGE-Fc. Subsequent addition of streptavidin coated Donor beads causes binding of the streptavidin to the biotinylated hS100A9. After an additional incubation the signal is measured.
Without inhibitory compounds, the interaction of biot-hS100A9 to rhRAGE-Fc will bring the Acceptor and Donor beads in close proximity thus generating a high signal. With an inhibitor present the complex will not form resulting in a decreased signal. The assay is illustrated in FIG. 1.
Chemicals and Reagents. • AlphaScreen® General IgG (Protein A) Detection Kit, (PerkinElmer 6760617M) • HBS-P buffer (GE Healthcare, BR-1003-68) • HBS-N buffer (GE Healthcare, BR-1003-69) • CaCl2 in HBS-P • ZnCl2 in Milli-Q water • DMSO • Biotinylated hS100A9, (biotinylated via cystein by EZ-link Iodoacetyl-PEG2-Biotin reagent (Pierce no. 21334), in HBS-N • rhRAGE-Fc (R&D Systems, 1145-RG-50), in HBS-P
The AlphaScreen assay method is used for screening of the inhibitory effect of different compound samples at fixed concentrations or for IC50 determination by varying the compound concentrations. Samples of test compounds and references are prepared from solutions in DMSO. Relevant reference inhibitors and DMSO are used as controls for defined inhibition and non-inhibition, respectively in the assay. The percent inhibition in assay for test compounds and references are calculated by comparing their obtained assay signals with the signal values for the control with only DMSO (no compound).
Assay concentration of biotinylated hS100A9 and rhRAGE-Fc are batch dependent, and are determined and defined by separate cross-titration experiments using this AlphaScreen inhibition method to verify the optimal setup regarding signal strength and achievement of a defined inhibition with relevant reference compounds. The Final assay concentrations of Acceptor and Donor beads are 20 μg/mL.
Assay buffer is prepared by adding CaCl2 and ZnCl2 to HBS-P and is used freshly prepared in the experiment.
Biotin-hS100A9 solution for the experiment is prepared by dilution of appropriate amount of stock solution biot-hS100A9 in assay buffer (with CaCl2 and ZnCl2) and incubation in room temperature for 30 minutes.
rhRAGE-Fc solution for the experiment is prepared by dilution appropriate amount of rhRAGE-Fc stock in assay buffer.
Protein A Acceptor beads are diluted in assay buffer and are added to an equal volume of the prepared diluted rhRAGE-Fc solution. The beads are light sensitive. The vial is covered with aluminum foil and incubated at room temperature in the dark until biot-hS100A9+compound incubation is finished (see below). […]

IC50	SMILES
1.2 µM	CC1CCCc2c1sc1nc(C(=O)NS(C)(=O)=O)cn21 (single isomer, unassigned) [Example 48, N-Methanesulfonyl-9-methyl-7-thia-2,5-diazatricyclo[6.4.0.0^2,6]dodeca-1(8),3,5-triene-4-carboxamide]
1.01 µM	CC1CCCc2c1sc1nc(C(=O)NS(C)(=O)=O)cn21 (single isomer, unassigned) [Example 49, N-Methanesulfonyl-9-methyl-7-thia-2,5-diazatricyclo[6.4.0.0^2,6]dodeca-1(8),3,5-triene-4-carboxamide]
1.3 µM	O=C(O)[C@@H]1CN2C(=N1)Sc1c2ccc(F)c1Cl (single isomer, unassigned) [Example 236]
0.68 µM	O=C(O)[C@H]1CN2C(=N1)Sc1c2ccc(F)c1Cl (single isomer, unassigned) [Example 237]
0.17 µM	C[C@]1(C(=O)O)CN2C(=N1)Sc1c2ccc(F)c1Cl (single isomer, unassigned) [Example 279a]
0.39 µM	C[C@@]1(C(=O)O)CN2C(=N1)Sc1c2ccc(F)c1Cl (single isomer, unassigned) [Example 279b]
0.13 µM	O=C(O)c1cn2c(n1)sc1c(Cl)c(Cl)ccc12 [Example 1, 9,10-Dichloro-7-thia-2,5-diazatricyclo[6.4.0.0^2,6]dodeca-1(8),3,5,9,11-pentaene-4-carboxylic acid]
0.25 µM	O=C(O)c1cn2c(n1)sc1c(Cl)c(F)ccc12 [Example 2, 9-Chloro-10-fluoro-7-thia-2,5-diazatricyclo[6.4.0.0^2,6]dodeca-1(8),3,5,9,11-pentaene-4-carboxylic acid]
0.35 µM	O=C(O)c1cn2c(n1)sc1c(F)c(Cl)ccc12 [Example 3, 10-Chloro-9-fluoro-7-thia-2,5-diazatricyclo[6.4.0.0^2,6]dodeca-1(8),3,5,9,11-pentaene-4-carboxylic acid]
1.16 µM	O=C(O)c1cn2c(n1)sc1cc(OC(F)(F)F)ccc12 [Example 4, 10-(Trifluoromethoxy)-7-thia-2,5-diazatricyclo[6.4.0.0^2,6]dodeca-1(8),3,5,9,11-pentaene-4-carboxylic acid]
1.3 µM	O=C(O)c1cn2c(n1)sc1c(Cl)cccc12 [Example 5, 9-Chloro-7-thia-2,5-diazatricyclo[6.4.0.0^2,6]dodeca-1(8),3,5,9,11-pentaene-4-carboxylic acid]
2.16 µM	O=C(O)c1cn2c(n1)sc1cccc(Cl)c12 [Example 7, 12-Chloro-7-thia-2,5-diazatricyclo[6.4.0.0^2,6]dodeca-1(8),3,5,9,11-pentaene-4-carboxylic acid]
2.7 µM	O=C(O)c1cn2c(n1)sc1cc(Cl)ccc12 [Example 8, 10-Chloro-7-thia-2,5-diazatricyclo[6.4.0.0^2,6]dodeca-1(8),3,5,9,11-pentaene-4-carboxylic acid]
2.97 µM	O=C(O)c1cn2c(n1)sc1cc(F)ccc12 [Example 10, 10-Fluoro-7-thia-2,5-diazatricyclo[6.4.0.0^2,6]dodeca-1(8),3,5,9,11-pentaene-4-carboxylic acid]
5.02 µM	Cc1ccc2c(c1)sc1nc(C(=O)O)cn12 [Example 11, 10-Methyl-7-thia-2,5-diazatricyclo[6.4.0.0^2,6]dodeca-1(8),3,5,9,11-pentaene-4-carboxylic acid]
5.61 µM	O=C(O)c1cn2c(n1)sc1ccc(Cl)cc12 [Example 12, 11-Chloro-7-thia-2,5-diazatricyclo[6.4.0.0^2,6]dodeca-1(8),3,5,9,11-pentaene-4-carboxylic acid]
1.3 µM	O=C(O)c1cn2c(n1)sc1cc(Br)ccc12 [Example 13, 10-Bromo-7-thia-2,5-diazatricyclo[6.4.0.0^2,6]dodeca-1(8),3,5,9,11-pentaene-4-carboxylic acid]
2.14 µM	O=C(O)c1cn2c(n1)sc1cc(C(F)(F)F)ccc12 [Example 14, 10-(Trifluoromethyl)-7-thia-2,5-diazatricyclo[6.4.0.0^2,6]dodeca-1(8),3,5,9,11-pentaene-4-carboxylic acid]
1.59 µM	O=C(O)c1cn2c(n1)sc1cc(Cl)cc(Cl)c12 [Example 16, 10,12-Dichloro-7-thia-2,5-diazatricyclo[6.4.0.0^2,6]dodeca-1(8),3,5,9,11-pentaene-4-carboxylic acid]
3.41 µM	O=C(O)c1nc2sc3cc(OC(F)(F)F)ccc3n2c1Br [Example 17, 3-Bromo-10-(trifluoromethoxy)-7-thia-2,5-diazatricyclo[6.4.0.0^2,6]dodeca-1(8),3,5,9,11-pentaene-4-carboxylic acid]
1.03 µM	CC(C)(C)Nc1c(C(=O)O)nc2sc3cc(OC(F)(F)F)ccc3n12 [Example 18, 3-(tert-Butylamino)-10-(trifluoromethoxy)-7-thia-2,5-diazatricyclo[6.4.0.0^2,6]dodeca-1(8),3,5,9,11-pentaene-4-carboxylic acid]
0.72 µM	O=C(O)Cc1cn2c(n1)sc1c(Cl)c(Cl)ccc12 [Example 19, 2-{9,10-Dichloro-7-thia-2,5-diazatricyclo[6.4.0.0^2,6]dodeca-1(8),3,5,9,11-pentaen-4-yl}acetic acid]
2.21 µM	CS(=O)(=O)NC(=O)c1cn2c(n1)sc1cc(OC(F)(F)F)ccc12 [Example 20, N-Methanesulfonyl-10-(trifluoromethoxy)-7-thia-2,5-diazatricyclo[6.4.0.0^2,6]dodeca-1(8),3,5,9,11-pentaene-4-carboxamide]
0.18 µM	CS(=O)(=O)NC(=O)c1cn2c(n1)sc1c(Cl)c(Cl)ccc12 [Example 21, 9,10-Dichloro-N-methanesulfonyl-7-thia-2,5-diazatricyclo[6.4.0.0^2,6]dodeca-1(8),3,5,9,11-pentaene-4-carboxamide]
0.28 µM	O=C(NS(=O)(=O)C1CC1)c1cn2c(n1)sc1c(Cl)c(Cl)ccc12 [Example 22, 9,10-Dichloro-N-(cyclopropanesulfonyl)-7-thia-2,5-diazatricyclo[6.4.0.0^2,6]dodeca-1(8),3,5,9,11-pentaene-4-carboxamide]
0.32 µM	COCCS(=O)(=O)NC(=O)c1cn2c(n1)sc1c(Cl)c(Cl)ccc12 [Example 23, 9,10-Dichloro-N-(2-methoxyethanesulfonyl)-7-thia-2,5-diazatricyclo[6.4.0.0^2,6]dodeca-1(8),3,5,9,11-pentaene-4-carboxamide]
0.34 µM	CCS(=O)(=O)NC(=O)c1cn2c(n1)sc1c(Cl)c(Cl)ccc12 [Example 24, 9,10-Dichloro-N-(ethanesulfonyl)-7-thia-2,5-diazatricyclo[6.4.0.0^2,6]dodeca-1(8),3,5,9,11-pentaene-4-carboxamide]
0.18 µM	O=C(NS(=O)(=O)CC(F)(F)F)c1cn2c(n1)sc1c(Cl)c(Cl)ccc12 [Example 25, 9,10-Dichloro-N-(2,2,2-trifluoroethanesulfonyl)-7-thia-2,5-diazatricyclo[6.4.0.0^2,6]dodeca-1(8),3,5,9,11-pentaene-4-carboxamide]
0.42 µM	O=C(NS(=O)(=O)C(F)(F)F)c1cn2c(n1)sc1c(Cl)c(Cl)ccc12 [Example 26, 9,10-Dichloro-N-trifluoromethanesulfonyl-7-thia-2,5-diazatricyclo[6.4.0.0^2,6]dodeca-1(8),3,5,9,11-pentaene-4-carboxamide]
